# Data taken from article PMC6498537, “Biomimetic synthesis of the natural product salviadione and its hybrids: discovery of tissue-specific anti-inflammatory agents for acute lung injury” (Chemical Science, 2019).
# Where two headings read alike, the source gives them in different places.
# Columns and labels:
# [1] = Liver microsomal stability assay, human; type: in vitro ADME; conditions: for Clint in vitro / half-life at 0.1 μM: human liver microsomes; for half-life at 0.1 μM: pH 7.4
# Procedure: (§1) Liver Microsomal Stability Assay. Microsomes in 0.1 M TRIS buffer pH 7.4 (final concentration 0.33 mg/mL), co-factor MgCl2 (final concentration 5 mM) and tested compound (final concentration 0.1 μM, co-solvent (0.01% DMSO) and 0.005% Bovin serum albumin) were incubated at 37°C for 10min. The reaction was started by the addition of NADPH (final concentration 1 mM). Aliquots were sampled at 0, 7, 17, 30 and 60 min, respectively, and methanol (cold in 4 °C) was added to terminate the […]
# (§2) reaction. […]
# [2] = Liver microsomal stability assay, rat; type: in vitro ADME; conditions: rat liver microsomes; for half-life at 0.1 μM: pH 7.4
# Procedure: as §1, §2
# [3] = set-up: method as in PMID 17504222; conditions: literature value for 2; ref 8a; cited from earlier work
# LPS-induced IL-6 release = LPS-induced IL-6 release in mouse primary peritoneal macrophages (ELISA); type: cell-based; conditions: Peritoneal macrophage, LPS (0.5 μg/mL) 24 h, 30 min pretreatment, read-out: IC50 against the release of IL-6
# Procedure: (§3) Figure S3. Inhibitory activity of the benzo[def]carbazole-3,5-diones against LPS-induced TNF-α and IL-6 secretion in mouse peritoneal macrophages. Macrophages were plated at a density of 5 × 10^5/plate for overnight at 37 °C and in 5% CO2. Cells were pretreated with 5 or tanshinone analogues (10 μM) for 30 min, then treated with LPS (0.5 μg/mL) for 24 h. L6H21 (19) was used as a positive control. TNF-α and IL-6 levels in the culture medium were measured by ELISA and were normalized by the total protein level. The results were presented as the percent of LPS control. Each bar represents the mean ± SD of three independent experiments.
# (§4) Statistical significance relative to the LPS group is indicated: ∗ , p < 0.05; ∗∗, p < 0.01.
# (§5) (1 picture or pasted object on this page, not shown here)
# (§6) Figure S5. […]
# (§7) 30 min, then treated with LPS (0.5 μg/mL) for 24 h. IL-6 and TNF-α levels in the culture media were measured by ELISA and were normalized by the total protein. The results were expressed as the percent of LPS. […]
# (§8) Determination of TNF-α and IL-6. The levels of TNF-α and IL-6 in medium, bronchoalveolar lavage fluid (BALF) and serum were determined with an ELISA kit (eBioScience, San Diego, CA) according to the manufacturer’s instructions. The total amount of the inflammatory factor in the medium was normalized to the total protein quantity of the viable cell pellets. […]
# [4] = tested on: LPS-induced TNF-α release; assay: LPS-induced TNF-α release in mouse primary peritoneal macrophages (ELISA); type: cell-based; conditions: Peritoneal macrophage, LPS (0.5 μg/mL) 24 h, 30 min pretreatment, read-out: IC50 against the release of TNF-α
# Procedure: as §3, §4, §5, §6, §7, §8
# [5] = molecular target: T1, hERG potassium ion channel (Homo sapiens, UniProt Q12809); assay: hERG cardiotoxicity assay (manual patch clamp, HEK293); type: cell-based; conditions: whole-cell patch clamp, read-out: hERG inhibition IC50
# T1 construct: expressed in transfected cells; host or cells: HEK293 (human embryonic kidney cells stably expressing hERG channels)
# Procedure: hERG Cardiotoxicity Assay. The human embryonic kidney cells stably expressing hERG channels were used in the study.
# vehicle control were delivered separately to the clamped cells by a 6-channel perfusion system. The hERG channel tail currents were recorded by clampex 10.3. The data were collected and analyzed by clampfit 10.3. The peak of the tail currents in the presence of positive control and test article were normalized with the currents recorded in the presence of corresponding vehicle control as 100 %, respectively. The IC50 value was calculated using GraphPad Prism 5.00.
# [6] = Preliminary pharmacokinetic parameters (p.o. and i.v.); type: in vivo; conditions: for MRT inf: read-out: MRTINF_obs
# Procedure: Table S4. Preliminary Pharmacokinetic Parameters for Compound 15a a-c
# T1/2 Tma Cmax AUC CL_obs MRTINF_obs Vss_obs F […]
# aValues are the average of three runs. Vehicle: DMSO, Tween 80, normal saline. CL, clearance; Vss, volume of distribution; T1/2, half-life; Cmax, maximum concentration; Tmax, time of maximum concentration; MRT, mean residence time; AUC, area under the plasma concentration time curve; F, oral bioavailability. bDose: p.o. at 3.0 mg/kg; cDose: i.v. at 1.0
# [7] = Tissue distribution after single intravenous administration; type: in vivo, SD rats; conditions: iv 2 mg kg^–1, rat
# Procedure: Tissue Distribution Assay. Compound 15a (2 mg/kg) dissolved in PEG300/EtOH/NaCl(40/10/50, v/v/v)to a concentration of 0.4 mg/mL, and was […]
# given to SD rats (Male, 180–220 g, three groups with three rats in each group) by intravenous administration. Blood samples and the important tissues including heart, liver, lung, kidney, and brain were collected at 0.25, 2 and 12 h after administration (anticoagulant: EDTA-Na2). For plasma samples, 250 μL of solvent of methanol: acetonitrile (1:1, v/v) with internal standard was added to 50 μL of plasma and vortexed thoroughly. For tissue samples, three times the weight of volume of PBS were added, then homogenized. The homogenates were precipitated by five times of methanol: acetonitrile (1:1, v/v) with internal standard. They were centrifuged for 5 min, and then 20 μL of the supernatant was mixed with 20 μL of water for analysis. Samples were analyzed by AB6500 triple quadrupole mass spectrometer (AB Sciex, USA). The ACQUITY UPLC BEH C18 (1.7 μm, 2.0 mm × 50 mm, Waters, USA) was used for the analysis. Gradient elution was applied consisting of ultrapure water containing 0.1% formic acid and acetonitrile containing 0.1% formic acid. […]
# LPS-induced ALI in mice = assay: LPS-induced acute lung injury (ALI) in mice; type: in vivo
# Procedure: LPS-Induced Acute Lung Injury (ALI) in B6 Mice. Compound 15a was first
# dissolved with macrogol 15 hydroxystearate (a nonionic solubilizer for injection from
# BASF) with or without medium chain triglycerides (MCT, from BASF) in a water bath
# at 37 °C. The concentration of compound was 2 mg/mL. The concentration of
# solubilizer was 5−10%, and that for MCT was 0.5−2% in final solution. For the vehicle,
# the mixture of solubilizer and MCT was prepared at 10% and 2%, respectively. Mice,
# weighing 20−24 g, were randomized to the following three groups of seven animals
# each: CON group, LPS group, 15a + LPS group. 15a + LPS group mice were pretreated
# with compounds in a water solution (5 mg/kg) by i.v injection 15 min before 5 mg/kg
# of LPS was administered by intratracheal instillation. The animals in CON group
# received a similar volume of vehicle. After 6 hours, mice were euthanized to collect the
# BALF, serum and lung tissue samples. […]
# Determination Total Protein Concentration and Number of Neutrophils in BALF.
# Bronchoalveolar lavage fluid (BALF) cells and supernatant were separated by
# centrifugal separation at 4 °C and 3,000 rpm for 10 minutes. Total protein concentration
# in supernatant of BALF was measured using a coomassie blue staining assay kit
# according to the manufacturer's instructions. The cells of BALF were resuspended in
# 40 μL of physiological saline and used for neutrophil cell counts by Wright–Giemsa
# Serum Analysis. Blood was collected from mice at sacrifice and was centrifuged at 4
# °C and 12,000 rpm for 10 minutes. […]
# Real-Time Quantitative PCR. Lung tissues were homogenized in TRIZOL kit
# (Invitrogen, Carlsbad, CA) for extraction of RNA according to each manufacturer’s
# protocol. Both reverse transcription and quantitative PCR were carried out using a two-
# step M-MLV Platinum SYBR Green qPCR SuperMix-UDG kit (Invitrogen, Carlsbad,
# CA). Eppendorf Mastercycler ep realplex detection system (Eppendorf, Hamburg,
# Germany) was used for RT-qPCR analysis. The primers of genes including TNF-α,
# IL-6, IL-1β, ICAM-1, and β-actin were synthesized by Invitrogen. The primer
# sequences of mouse genes used are shown as follows:
# TNF-α sense primer, 5′-[…]-3
# TNF-α antisense primer, 5′-[…]-3′;
# IL-6 sense primer, 5′-[…]-3′;
# IL-6 antisense primer, 5′-[…]-3′;
# IL-1β sense primer, 5′-[…]-3′;
# IL-1β antisense primer, 5′-[…]-3′;
# ICAM-1 sense primer, 5′-[…]-3′;
# ICAM-1 antisense primer, 5′-[…]-3′;
# β-actin sense primer, 5′-[…]-3′;
# β-actin antisense primer, 5′-[…]-3′.
# Statistical Analysis. The results are presented as the mean ±SD. The Student’s t test
# was employed to analyze the differences between sets of data. Statistics were performed
# using GraphPad Pro (GraphPad, San Diego, CA). P values less than 0.05 (p < 0.05)
# [8] = pretreatment 5 mg kg^–1 i.v., LPS, 6 h
# T1 sequence (Q12809 whole entry): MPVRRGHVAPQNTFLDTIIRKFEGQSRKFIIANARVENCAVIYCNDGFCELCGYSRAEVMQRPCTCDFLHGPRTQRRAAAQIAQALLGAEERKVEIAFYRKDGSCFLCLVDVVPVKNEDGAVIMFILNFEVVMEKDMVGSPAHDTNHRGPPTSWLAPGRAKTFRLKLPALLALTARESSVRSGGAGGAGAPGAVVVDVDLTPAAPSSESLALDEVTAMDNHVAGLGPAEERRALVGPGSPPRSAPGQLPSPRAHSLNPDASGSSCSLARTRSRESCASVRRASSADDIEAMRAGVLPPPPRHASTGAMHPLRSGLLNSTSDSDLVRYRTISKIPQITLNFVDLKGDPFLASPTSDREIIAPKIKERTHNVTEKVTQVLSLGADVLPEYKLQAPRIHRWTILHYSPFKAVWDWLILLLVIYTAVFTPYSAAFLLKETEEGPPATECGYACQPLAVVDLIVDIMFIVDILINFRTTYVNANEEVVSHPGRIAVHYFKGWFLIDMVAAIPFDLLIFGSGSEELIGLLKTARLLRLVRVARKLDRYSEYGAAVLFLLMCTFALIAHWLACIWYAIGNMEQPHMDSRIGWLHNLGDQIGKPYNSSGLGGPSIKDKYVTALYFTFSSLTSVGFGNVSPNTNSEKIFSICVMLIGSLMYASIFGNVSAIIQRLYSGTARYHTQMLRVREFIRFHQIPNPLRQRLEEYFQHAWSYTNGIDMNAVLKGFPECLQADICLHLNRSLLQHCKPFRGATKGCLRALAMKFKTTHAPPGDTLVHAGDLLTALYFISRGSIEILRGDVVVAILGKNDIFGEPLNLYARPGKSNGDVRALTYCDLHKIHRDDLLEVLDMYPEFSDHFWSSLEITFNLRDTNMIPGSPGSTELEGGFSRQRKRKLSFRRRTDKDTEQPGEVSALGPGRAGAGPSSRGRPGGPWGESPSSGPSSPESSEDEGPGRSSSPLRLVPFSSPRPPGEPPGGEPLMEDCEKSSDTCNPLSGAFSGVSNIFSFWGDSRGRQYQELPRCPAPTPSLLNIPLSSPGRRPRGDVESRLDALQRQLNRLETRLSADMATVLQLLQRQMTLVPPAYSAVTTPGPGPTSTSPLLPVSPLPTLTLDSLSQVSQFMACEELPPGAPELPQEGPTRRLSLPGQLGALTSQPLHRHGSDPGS
structure (smiles),measurement,setting,value
"Cc1coc2c1C(=O)C(=O)c1c-2ccc2c1CCCC2(C)C [Compound 2, tanshinone IIA, reference compound]",Clint in vitro,[1],277.17 mL min^–1 g^–1 protein
same,half-life at 0.1 μM,[1],7.58 min
same,half-life at 0.1 μM,[2],3.15 min
same,Clint in vitro,[2],666.40 mL min^–1 g^–1 protein
same,F (oral bioavailability),[3],< 3.5%
same,T1/2,[3],20.4 min
Cc1coc2c1C(=O)c1c3c-2ccc2c3c(n1Cc1ccccc1)C(=O)CC2(C)C [Compound 15a],IC50,LPS-induced IL-6 release,1.62 µM
same,IC50,[4],6.37 µM
same,IC50,[5],> 40 µM
same,enhancement of metabolic stability compared to 2,[1]; human and rat microsomes,4- to 7 fold
same,Clint in vitro,[1],61.62 mL min^–1 g^–1 protein
same,half-life at 0.1 μM,[1],34.1 min
same,half-life at 0.1 μM,[2],23.5 min
same,Clint in vitro,[2],89.44 mL min^–1 g^–1 protein
same,Vss_obs,"[6]; iv, 1.0 mg/kg",5.98 L/kg
same,AUC,"[6]; plasma, iv, 1.0 mg/kg",485 ng·h/mL
same,half-life,"[6]; plasma, iv, 1.0 mg/kg",300 min
same,clearance,"[6]; plasma, iv, 1.0 mg/kg, read-out: CL_obs",34.9 mL/min/kg
same,MRT inf,"[6]; plasma, iv, 1.0 mg/kg",179 min
same,AUC,"[6]; plasma, po, 3.0 mg/kg",426 ng·h/mL
same,Cmax,"[6]; plasma, po, 3.0 mg/kg",81.2 ng/mL
same,MRT inf,"[6]; plasma, po, 3.0 mg/kg",320 min
same,F (oral bioavailability),[6]; po 3.0 mg/kg vs iv 1.0 mg/kg,30.2%
same,T1/2,"[6]; po, 3.0 mg/kg",243 min
same,Tma,"[6]; po, 3.0 mg/kg",1.83 h
same,Concentration in brain,[7]; 0.25 h,224 ng g^–1
same,Concentration in heart,[7]; 0.25 h,992 ng g^–1
same,Concentration in heart plasma,[7]; 0.25 h,144 ng mL^–1
same,Concentration in kidney,[7]; 0.25 h,806 ng g^–1
same,Concentration in liver,[7]; 0.25 h,2557 ng g^–1
same,Concentration in lung,[7]; 0.25 h,3320 ng g^–1
same,Concentration in portal vein plasma,[7]; 0.25 h,142 ng mL^–1
same,Concentration in brain,[7]; 2 h,93.9 ng g^–1
same,Concentration in heart,[7]; 2 h,223 ng g^–1
same,Concentration in heart plasma,[7]; 2 h,31.2 ng mL^–1
same,Concentration in kidney,[7]; 2 h,187 ng g^–1
same,Concentration in liver,[7]; 2 h,518 ng g^–1
same,Concentration in lung,[7]; 2 h,847 ng g^–1
same,Concentration in portal vein plasma,[7]; 2 h,33.1 ng mL^–1
same,Concentration in brain,[7]; 12 h,3.11 ng g^–1
same,Concentration in heart,[7]; 12 h,19.8 ng g^–1
same,Concentration in heart plasma,[7]; 12 h,1.90 ng mL^–1
same,Concentration in kidney,[7]; 12 h,33.0 ng g^–1
same,Concentration in liver,[7]; 12 h,57.3 ng g^–1
same,Concentration in lung,[7]; 12 h,633 ng g^–1
same,Concentration in portal vein plasma,[7]; 12 h,2.04 ng mL^–1
same,lung drug concentration relative to other tissues,[7]; 12 h,11 to 300 times
same,"mRNA expression of TNF-α, IL-6, IL-1β and ICAM-1 in lung tissue (RT-qPCR)","LPS-induced ALI in mice; LPS-treated lung tissues, 5 mg/kg i.v.",markedly suppressed
same,lung wet/dry weight ratio (lung edema),"LPS-induced ALI in mice; pretreatment 5 mg kg^–1 i.v., 15 min before LPS 5 mg/kg intratracheal, 6 h",effectively reduced
same,lung macrophage infiltration (CD68 immunostaining),"LPS-induced ALI in mice; pretreatment 5 mg kg^–1 i.v., LPS",significantly attenuated
same,histopathological features of lung (H&E),LPS-induced ALI in mice; [8],very little histopathological changes
same,level of IL-6 in BALF,LPS-induced ALI in mice; [8],distinctly suppressed
same,level of IL-6 in serum,LPS-induced ALI in mice; [8],no significant inhibition
same,level of TNF-α in BALF,LPS-induced ALI in mice; [8],distinctly suppressed
same,level of TNF-α in serum,LPS-induced ALI in mice; [8],no significant inhibition
same,number of neutrophils in BALF,LPS-induced ALI in mice; [8],significantly decreased
same,protein concentration in BALF,LPS-induced ALI in mice; [8],significantly inhibited
